From patent US20040152903A1, “6-chloro-3-pyridylmethylpropylamine derivatives, preparation process thereof and bactericides” (priority 2004, published 2004)

How the values were obtained:
[1] = test system: wheat powdery mildew; assay: Permeable mobility fungicidal effect test in leaf section of wheat powdery mildew; assay type: in vivo; conditions: length of non-contracted area relative to compound (m-2); 200 mg/l, 0.5 μl applied to wheat leaf (Abukumawase)
Protocol: (Permeable Mobility Fungicidal Effect Test in Leaf Section of Wheat Powdery Mildew) In the test example 4, permeable mobility fungicidal effect test was performed on the leaf section of wheat powdery mildew with regard to the compounds I-1 to 27 according to the present invention and the comparative compounds (a) to (d), and (m-1) to (m-3) with the method described later. <Test Method> The compound in the form of a wettable powder obtained by Formulation 2 or the like was diluted and suspended with water to a predetermined concentration (200 mg/l), and 0.5 μl of the suspension was applied to a 2 to 3 cm leaf portion from the root of the three leaves of the 4th to 4.5th leaf period wheat (variety: Abukumawase) cultured by using a square plastic pot (size: 6.4 cm×6.4 cm). After these wheat leaves were subject to still standing in a glass house (temperature: 20 to 24° C., relative humidity: 20 to 70 RH) for one day, the spores of wheat powdery mildew were inoculated over the leaves by sprinkling the same with a brush from an infected leaf, a disease was contracted in the same glass house. The length of a non-contracted area generated from the applied portion to the direction of the leaf top was measured, and a relative mobility to the compound (m-2) was calculated with the following calculation […] by using the comparative compound (m-2) as a standard compound. Relative mobility=(Length of non-contracted area in each chemical section (cm)/Length of non-contracted area of compound (m-2) (cm)) (Equation 4)

[2] = test system: wheat powdery mildew; assay: Test of control effect on wheat powdery mildew; assay type: in vivo; design: Control Value: scale not given here; conditions: wettable powder 125 mg/l, 100 liters/10 a, wheat seedlings (Nourin 64), examined 9th to 14th day after inoculation
Protocol: (Test of Control Effect on Wheat Powdery Mildew) Wettable powders were prepared from compounds of the present invention I-1 to I-27 and comparative compounds (a) to (d), (m-1) and (m-3). The obtained wettable powder was diluted and suspended with water to provide the predetermined concentration (125 mg/l), and was sprinkled onto seedlings of wheat (variety: “Nourin 64”) at the first to the second leaf period which were cultivated using square plastic pots (size: 6.4 cm×6.4 cm) in a rate of 100 liters/10 a (ares). After drying the sprinkled leaves with air, a suspension of wheat powdery mildew spores taken from infected leaves was inoculated by spraying onto the sprinkled leaves. They were supervised in a green house (temperature: 20 to 24° C., relative humidity: 20 to 70 RH). On the 9th to 14th day after the inoculation, the infection degree was examined according to the following scale and the control value of each compound was calculated by the following calculation equation 1. [table]

[3] = test system: Leptosphaeria nodorum; assay: Antifungal activity test (PDA plate, hypha extension inhibition); assay type: cell-based; conditions: 0.8 ppm in PDA culture medium
Protocol: (§1) (Antifungal Activity Test against Various Pathogenic Fungi) For each of the compounds I-1 to 27 of the present invention and the comparative compounds (a) to (d), (m-1) and (m-3), 20 mg was weighed and dissolved in 2 ml of dimethylsulfoxide, and a double dilution row in 10 steps was prepared by further using dimethylsulfoxide. A 0.6 ml portion of these solutions was each added to 60 ml of a PDA culture medium (potato-dextrose-agar culture medium) at about 60° C., they were well mixed in a 100 ml Erlenmeyer flask, the solution was poured into a schale and was solidified, the plate culture media containing the compounds according to the present invention with final concentrations of 100, 50.0, 25.0, 12.5, 6.3, 3.2, 1.6, 0.8, 0.4 and 0.2 mg/l were prepared. On the other hand, the specimen bacteria cultured on the plate culture media beforehand was punched by a 4 mm diameter cork borer, and was inoculated on the plate culture media containing the aforementioned chemicals. After the inoculation, the bacteria were cultured at the optimum growth temperature of each bacterium for 1 to 7 days (for this optimum growth temperature, LIST OF CULTURES 1996 Microorganisms 10th edition published by Fermentation Research Institute (Foundation) can be referred to.), and the growth of the bacteria was measured by the diameter of a colony. […] R=100(dc−dt)/dc (Equation 3) [wherein each symbol is shown as follows: R=Hypha extension inhibition rate (%), dc=Diameter of colony on no-treated plate, dt=Diameter of colony on chemical-treated plate.] The results obtained above was evaluated in 5 steps in accordance with the following examination scale. <Growth Inhibition> 5: Hypha extension inhibition rate of 90% or more 4: Hypha extension inhibition rate of from 70% to less than 90% 3: […] 2: […] In addition, the abbreviations in Table 10 are as follows: L.n: Leptosphaeria nodorum

[4] = test system: Botrytis cinerea; assay: as above; assay type: cell-based; conditions: 1.6 ppm in PDA culture medium
Protocol: as §1, with “B.c: Botrytis cinerea” for “L.n: Leptosphaeria nodorum”

[5] = test system: cucumber powdery mildew; assay: Test of control effect on cucumber powdery mildew; assay type: in vivo; conditions: wettable powder 100 mg/l, 100 liters/10 a, cucumber (Sagamihanpakufushinari), examined 9th to 14th day after inoculation
Protocol: (Test of Control Effect on Cucumber Powdery Mildew) The wettable powders formulated by using each of the compounds I-1 to 27 according to the present invention and the comparative compounds (a) to (d), (m-1) and (m-3) were each diluted and suspended with water to a predetermined concentration (100 mg/l), the suspension was sprinkled over the first to the second leaf period cucumbers (variety: “[…]”) cultivated by using a square plastic pot (size: 6.4 cm×6.4 cm) in a rate of 100 liters/10 a (ares). After the sprinkled leaves were air-dried, the spores were inoculated over the leaves by sprinkling the same with a brush from an infected leaf, a disease was contracted in a glass house (temperature: 20 to 24° C., relative humidity: 20 to 70 RH). On the 9th to 14th day after the inoculation, the infection degree was examined according to the following scale and the control value of each compound was calculated by the following calculation equation 2: (Examination Scale) [table]

[6] = test system: Septoria tritici; assay: Antifungal activity test (PDA plate, hypha extension inhibition); assay type: cell-based; conditions: 100 ppm in PDA culture medium
Protocol: as §1, with “S.t: Septoria tritici” for “L.n: Leptosphaeria nodorum”

| Structure (SMILES) | Relative Mobility [1] | Control Value [2] | Growth Inhibition L.n (0.8) [3] | Growth Inhibition B.c (1.6) [4] | Control Value [5] | Growth Inhibition S.t (100) [6] |
| --- | --- | --- | --- | --- | --- | --- |
| CC(Cc1ccc(F)c(OC(F)(F)F)c1)CN(C)Cc1ccc(Cl)nc1 (centres unmarked) [Compound I-16] | 9 | 100 | 5 (Hypha extension inhibition rate of 90% or more) | 4 (Hypha extension inhibition rate of from 70% to less than 90%) | 100 |  |
| CC(Cc1ccc(C(F)(F)F)cc1F)CN(C)Cc1ccc(Cl)nc1 (centres unmarked) [Compound I-8] | 5 | 100 |  | 4 (Hypha extension inhibition rate of from 70% to less than 90%) | 100 | 4 (Hypha extension inhibition rate of from 70% to less than 90%) |
| CC(Cc1cc(C(F)(F)F)cc(C(F)(F)F)c1)CN(C)Cc1ccc(Cl)nc1 (centres unmarked) [Compound I-1] | 3 | 100 |  | 4 (Hypha extension inhibition rate of from 70% to less than 90%) | 100 |  |
